Test results taken from US9657057B2, “Dipeptide and tripeptide epoxy ketone protease inhibitors” (Onyx Therapeutics, Inc., priority 2013, dated 2017).
Converted amounts (≈) assume the structure as drawn.

Assay: Solubility pH 7
Assay type: physicochemical
Details: pH 7, aqueous buffer
`COc1ccc(C[C@H](NC(=O)[C@@H](C)NC(=O)c2ccc3[nH]cnc3c2)C(=O)N[C@@H](CC2CCCC2)C(=O)[C@@]2(C)CO2)cc1` [Compound C-2062, N—((R)-1-(((S)-1-(((S)-3-cyclopentyl-1-((R)-2-methyloxiran-2-yl)-1-oxopropan-2-yl)amino)-3-(4-methoxyphenyl)-1-oxopropan-2-yl)amino)-1-oxopropan-2-yl)-1H-benzo[d]imidazole-5-carboxamide] gave a solubility of 56 µg/mL (≈ 95 µM).
For `COc1ccc(C[C@H](NC(=O)[C@H](C)NC(=O)Cc2cnc(N)s2)C(=O)N[C@@H](CC2=CCCC2)C(=O)[C@@]2(C)CO2)cc1` [Compound C-2066, (S)-2-((S)-2-(2-(2-aminothiazol-5-yl)acetamido)propanamido)-N—((S)-3-(cyclopent-1-en-1-yl)-1-((R)-2-methyloxiran-2-yl)-1-oxopropan-2-yl)-3-(4-methoxyphenyl)propanamide], the solubility was 43.6 µg/mL (≈ 74.7 µM).
Compound `COC(=O)N[C@@H](C)C(=O)N[C@@H](Cc1ccc(OC)cc1)C(=O)N[C@@H](Cc1ccccc1)C(=O)[C@@]1(C)CO1` [Compound C-2009, Methyl ((S)-1-(((S)-3-(4-methoxyphenyl)-1-(((S)-1-((R)-2-methyloxiran-2-yl)-1-oxo-3-phenylpropan-2-yl)amino)-1-oxopropan-2-yl)amino)-1-oxopropan-2-yl)carbamate] has a solubility of 163 µg/mL (≈ 318 µM).
`CC1=C(C(=O)N[C@H](C)C(=O)N[C@@H](Cc2c[nH]c3ccccc23)C(=O)N[C@@H](Cc2ccccc2)C(=O)[C@@]2(C)CO2)Cc2ccccc21` [Compound C-2003] showed a solubility of 0.7 µg/mL (≈ 1.13 µM).
For `COc1ccc(C[C@H](NC(=O)[C@H](C)NC(=O)Cc2cnc(N(C)C)s2)C(=O)N[C@@H](CC2=CCCC2)C(=O)[C@@]2(C)CO2)cc1` [Compound C-2067, (S)—N—((S)-3-(cyclopent-1-en-1-yl)-1-((R)-2-methyloxiran-2-yl)-1-oxopropan-2-yl)-2-((S)-2-(2-(2-(dimethylamino)thiazol-5-yl)acetamido)propanamido)-3-(4-methoxyphenyl)propanamide], the solubility was 61.6 µg/mL (≈ 101 µM).
With `COc1ccc(C[C@H](NC(=O)[C@H](C)NC(C)=O)C(=O)N[C@@H](Cc2ccccc2)C(=O)[C@@]2(C)CO2)cc1` [Compound C-2005] the solubility was 735 µg/mL (≈ 1480 µM).
For `COc1ccc(C[C@H](NC(=O)[C@@]2(CO)CCCN2)C(=O)N[C@@H](Cc2ccccc2)C(=O)[C@@]2(C)CO2)cc1` [Compound C-3005], the solubility was 1920 µg/mL (≈ 3760 µM).
Compound `COc1ccc(C[C@H](NC(=O)C(C)(C)N)C(=O)N[C@@H](Cc2ccccc2)C(=O)[C@@]2(C)CO2)cc1` [Compound C-3006, 2-Amino-N—((S)-3-(4-methoxyphenyl)-1-(((S)-1-((R)-2-methyloxiran-2-yl)-1-oxo-3-phenylpropan-2-yl)amino)-1-oxopropan-2-yl)-2-methylpropanamide] has a solubility of 385 µg/mL (≈ 823 µM).
Compound `COc1ccc(C[C@H](NC(=O)[C@H](C)NC(=O)Cc2cnc(N)o2)C(=O)N[C@@H](CC2=CCCC2)C(=O)[C@@]2(C)CO2)cc1` [Compound C-2070, (S)-2-((S)-2-(2-(2-aminooxazol-5-yl)acetamido)propanamido)-N—((S)-3-(cyclopent-1-en-1-yl)-1-((R)-2-methyloxiran-2-yl)-1-oxopropan-2-yl)-3-(4-methoxyphenyl)propanamide] has a solubility of 1020 µg/mL (≈ 1800 µM).
In the case of `COc1ccc(C[C@H](NC(=O)[C@@H](C)NC(=O)c2ccc3[nH]ncc3c2)C(=O)N[C@@H](CC2CCCC2)C(=O)[C@@]2(C)CO2)cc1` [Compound C-2061, N—((R)-1-(((S)-1-(((S)-3-cyclopentyl-1-((R)-2-methyloxiran-2-yl)-1-oxopropan-2-yl)amino)-3-(4-methoxyphenyl)-1-oxopropan-2-yl)amino)-1-oxopropan-2-yl)-1H-indazole-5-carboxamide], the solubility is reported as 26.3 µg/mL (≈ 44.6 µM).
